Data on 10 compounds can be found in patent US12612420B2, “Arginase inhibitors and methods of use thereof” (Molecure S.A., priority 2020, dated 2026).

Assay [1] addresses T1, recombinant human arginase 1 (hARG1) (Homo sapiens, UniProt P05089).
T1 construct: made in house; host or cells: E. coli
T1 sequence (P05089 1-322): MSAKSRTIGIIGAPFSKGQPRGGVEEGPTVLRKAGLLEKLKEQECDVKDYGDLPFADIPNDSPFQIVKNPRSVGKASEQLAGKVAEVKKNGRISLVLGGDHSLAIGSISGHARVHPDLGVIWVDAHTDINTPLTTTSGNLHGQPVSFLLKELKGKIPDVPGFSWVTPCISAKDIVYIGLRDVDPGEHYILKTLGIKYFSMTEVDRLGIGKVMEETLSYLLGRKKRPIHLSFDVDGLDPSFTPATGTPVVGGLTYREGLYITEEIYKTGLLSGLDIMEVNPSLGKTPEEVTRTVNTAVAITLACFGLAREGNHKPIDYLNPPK
The experiment in a line: Human arginase inhibition assay (colorimetric urea detection), arginase 1. The class given is biochemical. To be noted: IC50 class; hydrochloride salts; 1 h at 37° C., pH 7.4, 10 mM L-arginine, 200 μM MnCl2; read-out: Activity Class (ARG I). On the procedure: (§1) Human Arginase Inhibition Assay
(§2) The inhibitory activities of the compounds of the invention were assessed using recombinant human arginases 1 and 2. Both enzymes were biosynthesized using a prokaryotic expression system (E. coli) and purified by fast protein liquid chromatography (FPLC). The compounds were screened in 96-well plates at the total reaction volume of 100 μL. Briefly, recombinant enzymes were incubated with the tested compounds for 1 h at 37° C. in the reaction buffer (100 mM sodium phosphate buffer, 130 mM NaCl, 1 mg/mL BSA, pH 7.4) containing substrate (L-arginine hydrochloride, 10 mM for hARG1 and 20 mM for hARG2) and cofactor (200 μM MnCl2). The assay is based on the detection of urea, which is generated during the conversion of L-arginine into L-omithine catalyzed by ARG1 or ARG2 (Baggio et al. J Pharmacol. Exp. Ther. 1999, 290, 1409-1416). The colorimetrically detectable product was developed by adding a mixture of reagent A (4 mM oPA, 50 mM boric acid, 1 M sulfuric acid, 0.03% Brij-35) and reagent B (4 mM NED, 50 mM boric acid, 1 M sulfuric acid, 0.03% Brij-35) in equal proportions. The absorbance for each well was measured at 515 nm and the enzyme inhibition was calculated. The urea production in the absence of any tested compound was considered as maximal enzyme activity. The absorbance at the absence of arginase (background) was subtracted from all the values. The normalized values were analyzed using GraphPad Prism 7.0 software by plotting inhibition curves and determining the IC50 values.
(§3) The inhibitory activity classes of the hydrochloride salts of the exemplary compounds according to the invention are presented in Table 1

Assay [2] concerns the target T2, recombinant human arginase 2 (hARG2) (Homo sapiens, UniProt P78540).
T2 construct: made in house; host or cells: E. coli
T2 sequence (P78540 23-354): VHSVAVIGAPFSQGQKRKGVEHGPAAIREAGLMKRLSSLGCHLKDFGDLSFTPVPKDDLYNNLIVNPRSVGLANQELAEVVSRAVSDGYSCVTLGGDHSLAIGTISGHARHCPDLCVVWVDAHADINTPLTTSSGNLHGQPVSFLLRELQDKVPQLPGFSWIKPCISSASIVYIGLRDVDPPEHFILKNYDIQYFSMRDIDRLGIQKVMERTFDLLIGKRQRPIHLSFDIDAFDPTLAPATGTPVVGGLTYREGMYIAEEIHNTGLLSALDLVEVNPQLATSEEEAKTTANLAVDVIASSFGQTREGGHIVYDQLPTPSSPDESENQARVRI
Put plainly: Human arginase inhibition assay (colorimetric urea detection), arginase 2. To be noted: IC50 class; hydrochloride salts; 1 h at 37° C., pH 7.4, 20 mM L-arginine, 200 μM MnCl2; read-out: Activity Class (ARG II). The class given is biochemical. On the procedure: as §1, §2, §3

Assay [3] addresses T3, intracellular arginase in macrophages isolated from murine bone marrow (BMDM) (Mus musculus, UniProt Q61176).
T3 construct: endogenous in cells; host or cells: primary bone-marrow-derived macrophages from C57BL/6 mice, cultured with M-CSF, TGF-β and IL-4
T3 sequence (Q61176 1-323): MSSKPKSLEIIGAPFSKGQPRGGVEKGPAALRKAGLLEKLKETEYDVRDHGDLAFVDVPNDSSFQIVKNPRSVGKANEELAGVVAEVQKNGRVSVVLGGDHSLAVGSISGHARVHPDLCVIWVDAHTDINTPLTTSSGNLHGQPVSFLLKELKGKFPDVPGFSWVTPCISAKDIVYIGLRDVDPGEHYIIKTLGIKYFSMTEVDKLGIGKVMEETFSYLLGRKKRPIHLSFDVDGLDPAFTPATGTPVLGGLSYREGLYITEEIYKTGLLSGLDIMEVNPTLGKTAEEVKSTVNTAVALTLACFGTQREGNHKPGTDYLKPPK
Put plainly: Cell-based assay: intracellular arginase in bone marrow derived macrophages (BMDM), urea in culture medium. On the set-up: species or system murine (C57BL/6 mice). To be noted: IC50 class; M2-polarised murine BMDM (M-CSF, TGF-β, IL-4), urea in medium after 24 hours. On the procedure: To illustrate the lower cellular activity of the compounds according to the invention versus arginase inhibitors disclosed in U.S. Ser. No. 10/391,077 B2, the selected examples were tested in cell-based assay using murine primary macrophages. Lower intracellular activity observed for the compounds according to the invention may potentially result in lower hepatotoxicity compared to the arginase inhibitors disclosed in U.S. Ser. No. 10/391,077 B2.
Efficacy of Selected Examples Towards Intracellular Arginase in Macrophages Isolated from Murine Bone Marrow—Bone Marrow Derived Macrophages (BMDM)
Murine bone marrow-derived or peritoneal macrophages comprise a convenient in vitro model that enables differentiation of these cells towards M1 or M2 macrophages and further use for the study.
Materials & Methods: The assay was performed according to modified literature protocol (Pineda-Torra I et al., Methods Mol Biol. 2015; 1339:101-9. Mia S et al., Scand J Immunol. 2014 May; 79(5):305-14). The femurs and tibias were isolated from C57BL/6 mice. Bones were cleaned from all attached tissues by using a sterile swab without affecting the bone structure. The sides of the bones were cut off and flush with cold sterile PBS by using 26-G needle S into a 50 mL sterile tube with a cell strainer (Falcon™, Cat. No. U00149), until the bone cavity appeared white. Then, the cells were centrifuged (5 min at 500×G, 4° C.), washed twice with PBS and counted. Cells were plated in Petri dish in density of 1×10^6/mL and cultured in DMEM (Gibco, Cat. No. 31331-029) with 10% FBS, 1% pen-strep and 50 ng/mL M-CSF (PeproTech, Cat. No. 315-02), (37° C., 5% CO2). After five days cells were subcultured into P96 plate (BD, Cat. No. 353072) at the density of 64,000 cells/well in medium supplemented with 50 ng/mL M-CSF, 20 ng/mL TGF-β and 30 ng/mL IL-4 (Biomibo Cat. No. 214-1). One day later exemplary compounds (dissolved in PBS) were added in several different concentrations and 24 hours later the level of urea was measured in the culture medium in each well (Jung D et al., Clin Chem. 1975, 21(8):1136-40). The concentration of urea in the absence of any compound was considered as the maximum enzyme activity. The absorbance of cell culture media (background) was subtracted from all the values.
The IC50 values were calculated using GraphPad Prism 7.0. and assigned into the following classes: A=10-100 μM; and B>100 μM.

pIC50: −log10 of the molar value. Structures can show the parent of a compound that is named as a salt.

For the compound `N=C(N)NCCC[C@H](N)C(=O)NC[C@@H]1CC[C@@H](CCB(O)O)C[C@]1(N)C(=O)O` [Example 13, (1R,2S,5R)-1-Amino-2-(((S)-2-amino-5-guanidinopentanamido)methyl)-5-(2-boronoethyl)cyclohexane-1-carboxylic acid trihydrochloride], the pIC50 is 7.00 to 9.00 in assay [1], < 6.52 in assay [2] and < 4.00 in assay [3].
The matching figures for `CSCC[C@H](N)C(=O)NC[C@@H]1CC[C@@H](CCB(O)O)C[C@]1(N)C(=O)O` [Example 17, (1R,2S,5R)-1-Amino-2-(((S)-2-amino-4-(methylthio)butanamido)methyl)-5-(2-boronoethyl)cyclohexane-1-carboxylic acid dihydrochloride]: 7.00 to 9.00, 6.52 to 6.70 and 4.00 to 5.00.
For `NCCCC[C@H](N)C(=O)NC[C@@H]1CC[C@@H](CCB(O)O)C[C@]1(N)C(=O)O` [Example 9, (1R,2S,5R)-1-Amino-5-(2-boronoethyl)-2-(((S)-2,6-diaminohexanamido)methyl)cyclohexane-1-carboxylic acid trihydrochloride] the same measures were 7.00 to 9.00, < 6.52 and < 4.00.
For `NCC(=O)NC[C@@H]1CC[C@@H](CCB(O)O)C[C@]1(N)C(=O)O` [Example 4, (1R,2S,5R)-1-Amino-2-((2-aminoacetamido)methyl)-5-(2-boronoethyl)cyclohexane-1-carboxylic acid dihydrochloride] the same measures were 7.00 to 9.00, < 6.52 and < 4.00.
Turning to `N[C@]1(C(=O)O)C[C@H](CCB(O)O)CC[C@H]1CNC(=O)[C@@H]1CCCN1` [Example 5, (1R,2S,5R)-1-Amino-5-(2-boronoethyl)-2-(((S)-pyrrolidine-2-carboxamido)methyl)cyclohexane-1-carboxylic acid dihydrochloride], the pIC50 is 7.00 to 9.00 in assay [1], < 6.52 in assay [2] and < 4.00 in assay [3].
`CC(C)(C)[C@H](N)C(=O)NC[C@@H]1CC[C@@H](CCB(O)O)C[C@]1(N)C(=O)O` [Example 12, (1R,2S,5R)-1-Amino-2-(((S)-2-amino-3,3-dimethylbutanamido)methyl)-5-(2-boronoethyl)cyclohexane-1-carboxylic acid dihydrochloride]: the figures for the pIC50 in assay [1], in assay [2] and in assay [3] were 7.00 to 9.00, 6.52 to 6.70 and < 4.00, respectively.
The matching figures for `CC(C)[C@H](N)C(=O)NC[C@@H]1CC[C@@H](CCB(O)O)C[C@]1(N)C(=O)O` [Example 2, (1R,2S,5R)-1-Amino-2-(((S)-2-amino-3-methylbutanamido)methyl)-5-(2-boronoethyl)cyclohexane-1-carboxylic acid dihydrochloride]: 6.70 to 7.00, 6.52 to 6.70 and 4.00 to 5.00.
For `CC(C)C[C@H](N)C(=O)NC[C@@H]1CC[C@@H](CCB(O)O)C[C@]1(N)C(=O)O` [Example 6, (1R,2S,5R)-1-Amino-2-(((S)-2-amino-4-methylpentanamido)methyl)-5-(2-boronoethyl)cyclohexane-1-carboxylic acid dihydrochloride] the same measures were 7.00 to 9.00, 6.70 to 7.00 and 4.00 to 5.00.
On to `CC[C@H](C)[C@H](N)C(=O)NC[C@@H]1CC[C@@H](CCB(O)O)C[C@]1(N)C(=O)O` [Example 10, (1R,2S,5R)-1-Amino-2-(((2S,3S)-2-amino-3-methylpentanamido)methyl)-5-(2-boronoethyl)cyclohexane-1-carboxylic acid dihydrochloride], for which the figures for the pIC50 in assay [1], in assay [2] and in assay [3] were 7.00 to 9.00, < 6.52 and < 4.00, respectively.
For `N[C@@H](Cc1ccccc1)C(=O)NC[C@@H]1CC[C@@H](CCB(O)O)C[C@]1(N)C(=O)O` [Example 3, (1R,2S,5R)-1-Amino-2-(((S)-2-amino-3-phenylpropanamido)methyl)-5-(2-boronoethyl)cyclohexane-1-carboxylic acid dihydrochloride] the same measures were < 6.52, < 6.52 and < 4.00.
